Reference: the supplement of paper PMC10307832

Experiments:
Test in all cases: relative viability (nuclei count vs DMSO), 5 days (fraction); higher = more cells survive
NVP-TAE684 + Tozasertib = compound: COc1cc(N2CCC(N3CCN(C)CC3)CC2)ccc1Nc1ncc(Cl)c(Nc2ccccc2S(=O)(=O)C(C)C)n1 [NVP-TAE684] + Cc1cc(Nc2cc(N3CCN(C)CC3)nc(Sc3ccc(NC(=O)C4CC4)cc3)n2)n[nH]1 [Tozasertib] (partner 0.1 µM)
Summary of the method: (§1)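 Lung cancer cell lines in 1536-well plates got either a single drug or a fixed anchor-drug dose together with five library-drug doses (not always all listed) in √10 steps, by pin tool, on the day after seeding. Nuclei were counted after 5 days, and relative viability is the treated-to-vehicle ratio of nuclei counts. Values are medians of duplicate plates.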

Vandetanib + Pictilisib = compound: COc1cc2/c(=N/c3ccc(Br)cc3F)nc[nH]c2cc1OCC1CCN(C)CC1 [Vandetanib] + CS(=O)(=O)N1CCN(Cc2cc3nc(-c4cccc5[nH]ncc45)nc(N4CCOCC4)c3s2)CC1 [Pictilisib] (partner 1 µM)
Summary of the method: as §1

Vandetanib + Alpelisib = compound: COc1cc2/c(=N/c3ccc(Br)cc3F)nc[nH]c2cc1OCC1CCN(C)CC1 [Vandetanib] + Cc1nc(NC(=O)N2CCC[C@H]2C(N)=O)sc1-c1ccnc(C(C)(C)C(F)(F)F)c1 [Alpelisib] (partner 2 µM)
Summary of the method: as §1

Vandetanib + Decitabine = compound: COc1cc2/c(=N/c3ccc(Br)cc3F)nc[nH]c2cc1OCC1CCN(C)CC1 [Vandetanib] + Nc1ncn([C@H]2C[C@H](O)[C@@H](CO)O2)c(=O)n1 [Decitabine] (partner 2 µM)
Summary of the method: as §1

Cell Line | relative viability (NVP-TAE684 + Tozasertib; first compound 0.2 µM) | relative viability (NVP-TAE684 + Tozasertib; first compound 0.6325 µM) | relative viability (NVP-TAE684 + Tozasertib; first compound 2 µM) | relative viability (Vandetanib + Pictilisib; first compound 0.02 µM) | relative viability (Vandetanib + Pictilisib; first compound 0.06325 µM) | relative viability (Vandetanib + Pictilisib; first compound 0.2 µM) | relative viability (Vandetanib + Pictilisib; first compound 0.6325 µM) | relative viability (Vandetanib + Pictilisib; first compound 2 µM) | relative viability (Vandetanib + Alpelisib; first compound 0.02 µM) | relative viability (Vandetanib + Alpelisib; first compound 0.06325 µM) | relative viability (Vandetanib + Alpelisib; first compound 0.2 µM) | relative viability (Vandetanib + Alpelisib; first compound 0.6325 µM) | relative viability (Vandetanib + Alpelisib; first compound 2 µM) | relative viability (Vandetanib + Decitabine; first compound 0.02 µM) | relative viability (Vandetanib + Decitabine; first compound 0.06325 µM) | relative viability (Vandetanib + Decitabine; first compound 0.2 µM) | relative viability (Vandetanib + Decitabine; first compound 0.6325 µM) | relative viability (Vandetanib + Decitabine; first compound 2 µM)
PC-14 | 0.627 | 0.531 | 0.461 | 0.676 | 0.594 | 0.35 | 0.0812 | 0.0658 | 0.922 | 0.846 | 0.911 | 0.447 | 0.182 | 0.246 | 0.197 | 0.175 | 0.171 | 0.159
201T | 0.925 | 0.942 | 0.536 | 0.663 | 0.648 | 0.652 | 0.706 | 0.692 | 1.08 | 0.959 | 0.985 | 0.977 | 0.995 | 0.831 | 0.828 | 0.859 | 0.85 | 0.797
LXF-289 | 0.263 | 0.168 | 0.0842 | 0.828 | 0.771 | 0.773 | 0.792 | 0.798 | 1.05 | 1 | 1.02 | 1.03 | 1.04 | 0.376 | 0.382 | 0.362 | 0.348 | 0.393
